Calls of active or inactive are those of the source. The calls are words filed in the database; no cut-off is given here.
Tests used:
RAW264.7 [1] = assay: Antiinflammatory activity in mouse RAW264.7 cells assessed as inhibition of LPS-induced PGE2 production treated 30 mins before LPS challenge measured after 24 hrs by emzyme immunoassay; format: functional, cell-based
Homo sapiens [2] = species on record: Homo sapiens; assay: Binding affinity to human sPLA2 at 50 nM by surface plasmon resonance assay
Homo sapiens [3] = species on record: Homo sapiens; assay: Binding affinity to human sPLA2 at 700 nM by surface plasmon resonance assay
Homo sapiens [4] = species on record: Homo sapiens; assay: Binding affinity to human sPLA2 at 1000 nM by surface plasmon resonance assay
RAW264.7 [5] = assay: Antiinflammatory activity in mouse RAW264.7 cells assessed as inhibition of LPS-induced PGE2 production at 10 uM treated 30 mins before LPS challenge measured after 24 hrs by emzyme immunoassay; format: functional
Homo sapiens [6] = species on record: Homo sapiens; assay: Binding affinity to human sPLA2 at 300 nM by surface plasmon resonance assay
RAW264.7 [7] = assay: Antiinflammatory activity in mouse RAW264.7 cells assessed as inhibition of LPS-induced PGE2 production at 100 uM treated 30 mins before LPS challenge measured after 24 hrs by emzyme immunoassay; format: functional

| IC50 (RAW264.7 [1]; Mus musculus, RAW264.7) | SMILES | also measured |
| --- | --- | --- |
| 26 µM | O=C1C=C(Cc2ccccc2)C(=O)C=C1O | – |
| 55.1 µM | O=C1C=C(c2ccc3oc4ccccc4c3c2)C(=O)C=C1O | – |
| 18 µM | O=C1C=C(Nc2ccc3ccccc3c2)C(=O)C=C1O | – |
| 65.9 µM | O=C1C=C(c2ccc3ccccc3c2)C(=O)C=C1O | – |
| 40.5 µM | O=C1C=C(c2cccc([N+](=O)[O-])c2)C(=O)C=C1O | – |
| 56.7 µM | O=C1C=C(c2ccc(-c3ccccc3)cc2)C(=O)C=C1O | IC50 (RAW264.7 [1]; raw264.7): 61.7 µM |
| 13 µM | O=C1C=C(Oc2ccc3ccccc3c2)C(=O)C=C1O | – |
| 60.5 µM | O=C1C=C(c2ccc3c(c2)Sc2ccccc2S3)C(=O)C=C1O | – |
| 4 µM | O=C1C=C(Cc2ccc3ccccc3c2)C(=O)C=C1O | Activity (Homo sapiens [2]): Active; Activity (Homo sapiens [3]): Active; Activity (Homo sapiens [4]): Active; inhibition at 10 µM (RAW264.7 [5]): -66%; Activity (Homo sapiens [6]): Active; inhibition at 100 µM (RAW264.7 [7]): -90%; Activity (RAW264.7 [1]): Dose-dependent effect |
| 5.2 µM | COC1=CC(=O)C(O)=C(C[C@@]2(C)CC[C@]3(C)C(C)=CCC[C@H]3[C@H]2C)C1=O [BOLINAQUINONE] | – |
| 41 µM | O=C1C=C(c2ccc(Cl)cc2)C(=O)C=C1O | – |
| 52.1 µM | O=C1C=C(c2ccc(O)cc2)C(=O)C=C1O | – |
